Reference: the kinase profiling compilation of Christmann-Franck et al. (2016)

Assays:
Experiment in all cases: KINOMEscan competition binding
Conditions in all cases: compound 10.0 µM
CDK19 (human) = CDK19 (human) (UniProt Q9BWU1)
MELK (human) = MELK (human) (UniProt Q14680)
MAPK9 (human) = MAPK9 (human) (UniProt P45984)
MAP3K5 (human) = MAP3K5 (human) (UniProt Q99683)
CAMK4 (human) = CAMK4 (human) (UniProt Q16566)
FYN (human) = FYN (human) (UniProt P06241)
RPS6KA1 KD2 (human) = RPS6KA1 KD2 (human) (UniProt Q15418)
BTK (human) = BTK (human) (UniProt Q06187)
RPS6KA3 KD1 (human) = RPS6KA3 KD1 (human) (UniProt P51812)
IKBKE (human) = IKBKE (human) (UniProt Q14164)
FGFR1 (human) = FGFR1 (human) (UniProt P11362)
Chain of FGFR1 (human) (P11362 whole entry, looked up): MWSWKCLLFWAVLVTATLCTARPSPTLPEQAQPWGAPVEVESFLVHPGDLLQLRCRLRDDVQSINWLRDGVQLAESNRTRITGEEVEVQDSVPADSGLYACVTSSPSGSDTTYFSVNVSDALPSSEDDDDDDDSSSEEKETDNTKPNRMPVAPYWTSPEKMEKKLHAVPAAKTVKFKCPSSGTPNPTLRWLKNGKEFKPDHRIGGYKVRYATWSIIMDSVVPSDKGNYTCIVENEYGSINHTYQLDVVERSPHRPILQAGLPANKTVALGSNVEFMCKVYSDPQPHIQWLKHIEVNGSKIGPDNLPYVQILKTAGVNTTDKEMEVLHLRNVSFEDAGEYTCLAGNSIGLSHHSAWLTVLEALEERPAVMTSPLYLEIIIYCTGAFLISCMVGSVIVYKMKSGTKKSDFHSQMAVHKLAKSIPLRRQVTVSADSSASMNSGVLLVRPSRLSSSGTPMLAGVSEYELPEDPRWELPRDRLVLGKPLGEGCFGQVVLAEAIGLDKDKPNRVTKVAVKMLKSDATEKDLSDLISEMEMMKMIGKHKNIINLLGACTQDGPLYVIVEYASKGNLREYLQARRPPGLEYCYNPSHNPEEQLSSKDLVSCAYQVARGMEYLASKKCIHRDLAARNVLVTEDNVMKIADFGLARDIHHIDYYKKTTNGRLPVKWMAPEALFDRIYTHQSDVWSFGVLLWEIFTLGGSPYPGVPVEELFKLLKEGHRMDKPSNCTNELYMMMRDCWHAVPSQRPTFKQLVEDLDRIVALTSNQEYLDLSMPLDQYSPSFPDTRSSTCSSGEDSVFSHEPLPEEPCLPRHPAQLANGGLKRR

GSK3A (human) = GSK3A (human) (UniProt P49840)
CDK9 (human) = CDK9 (human) (UniProt P50750)
MAP3K3 (human) = MAP3K3 (human) (UniProt Q99759)
Chain of MAP3K3 (human) (Q99759 whole entry, looked up): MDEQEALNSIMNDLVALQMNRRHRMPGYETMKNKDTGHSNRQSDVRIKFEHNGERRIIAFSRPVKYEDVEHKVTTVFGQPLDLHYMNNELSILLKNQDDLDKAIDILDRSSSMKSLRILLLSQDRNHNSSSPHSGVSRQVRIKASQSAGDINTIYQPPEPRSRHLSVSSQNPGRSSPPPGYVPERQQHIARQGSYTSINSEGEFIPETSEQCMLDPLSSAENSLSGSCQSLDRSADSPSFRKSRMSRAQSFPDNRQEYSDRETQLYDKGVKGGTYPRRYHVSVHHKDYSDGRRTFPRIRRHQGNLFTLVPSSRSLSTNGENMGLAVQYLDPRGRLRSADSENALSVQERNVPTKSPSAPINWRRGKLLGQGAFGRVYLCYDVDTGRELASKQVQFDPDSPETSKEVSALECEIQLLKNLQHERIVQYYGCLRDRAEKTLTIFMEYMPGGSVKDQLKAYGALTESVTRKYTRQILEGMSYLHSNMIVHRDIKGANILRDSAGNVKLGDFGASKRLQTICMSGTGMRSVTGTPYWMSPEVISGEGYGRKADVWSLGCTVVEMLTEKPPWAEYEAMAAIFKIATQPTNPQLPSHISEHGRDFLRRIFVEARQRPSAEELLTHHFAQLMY

CSF1R (human) = CSF1R (human) (UniProt P07333)
CSNK1A1L (human) = CSNK1A1L (human) (UniProt Q8N752)
VRK2 (human) = VRK2 (human) (UniProt Q86Y07)
CAMK2G (human) = CAMK2G (human) (UniProt Q13555)
MST4 (human) = MST4 (human) (UniProt Q9P289)
[1] = system: EGFR (human), P00533 [T790M/L858R]
IRAK3 (human) = IRAK3 (human) (UniProt Q9Y616)
MAP3K1 (human) = MAP3K1 (human) (UniProt Q13233)
Chain of MAP3K1 (human) (Q13233 whole entry, looked up): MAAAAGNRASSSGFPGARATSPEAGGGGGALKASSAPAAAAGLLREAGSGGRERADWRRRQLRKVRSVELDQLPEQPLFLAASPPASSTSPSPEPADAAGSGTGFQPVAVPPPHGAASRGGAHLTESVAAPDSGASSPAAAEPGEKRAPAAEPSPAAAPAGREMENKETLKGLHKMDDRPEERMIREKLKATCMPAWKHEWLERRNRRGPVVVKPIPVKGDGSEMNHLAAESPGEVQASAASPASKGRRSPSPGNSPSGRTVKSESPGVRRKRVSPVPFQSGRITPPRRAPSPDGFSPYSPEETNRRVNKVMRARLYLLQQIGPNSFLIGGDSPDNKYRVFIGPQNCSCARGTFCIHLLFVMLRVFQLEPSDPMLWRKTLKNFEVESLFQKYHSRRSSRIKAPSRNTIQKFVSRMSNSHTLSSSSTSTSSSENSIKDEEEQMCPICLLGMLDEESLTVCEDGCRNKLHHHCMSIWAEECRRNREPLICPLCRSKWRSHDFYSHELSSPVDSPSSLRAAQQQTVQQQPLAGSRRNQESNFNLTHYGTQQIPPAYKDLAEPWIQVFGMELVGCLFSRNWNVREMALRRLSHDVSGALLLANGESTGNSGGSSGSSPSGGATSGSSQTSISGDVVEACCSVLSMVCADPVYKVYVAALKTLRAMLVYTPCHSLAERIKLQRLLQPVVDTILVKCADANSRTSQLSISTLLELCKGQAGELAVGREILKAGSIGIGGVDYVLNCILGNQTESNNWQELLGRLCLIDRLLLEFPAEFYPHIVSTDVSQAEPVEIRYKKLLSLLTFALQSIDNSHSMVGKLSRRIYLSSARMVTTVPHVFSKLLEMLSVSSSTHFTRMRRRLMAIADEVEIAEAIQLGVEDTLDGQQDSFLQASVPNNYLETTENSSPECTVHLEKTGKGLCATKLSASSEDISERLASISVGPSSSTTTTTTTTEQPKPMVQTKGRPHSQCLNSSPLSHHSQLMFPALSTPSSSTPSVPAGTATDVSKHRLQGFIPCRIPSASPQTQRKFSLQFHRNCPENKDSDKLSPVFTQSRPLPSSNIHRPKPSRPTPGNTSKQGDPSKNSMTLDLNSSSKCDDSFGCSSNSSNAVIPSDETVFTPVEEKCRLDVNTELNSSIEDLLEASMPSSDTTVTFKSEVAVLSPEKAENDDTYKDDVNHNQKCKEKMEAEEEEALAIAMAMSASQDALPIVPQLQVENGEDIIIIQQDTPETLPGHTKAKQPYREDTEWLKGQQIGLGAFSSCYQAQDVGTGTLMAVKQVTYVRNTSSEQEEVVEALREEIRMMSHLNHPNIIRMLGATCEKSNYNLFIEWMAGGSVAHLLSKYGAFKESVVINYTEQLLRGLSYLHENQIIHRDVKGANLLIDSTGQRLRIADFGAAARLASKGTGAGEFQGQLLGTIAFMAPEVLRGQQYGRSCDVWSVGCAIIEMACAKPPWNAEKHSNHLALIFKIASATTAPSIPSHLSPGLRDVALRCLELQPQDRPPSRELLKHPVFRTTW

RIPK1 (human) = RIPK1 (human) (UniProt Q13546)
PRKG2 (human) = PRKG2 (human) (UniProt Q13237)
PIK3CD (human) = PIK3CD (human) (UniProt O00329)
ACVR2B (human) = ACVR2B (human) (UniProt Q13705)
MAP2K4 (human) = MAP2K4 (human) (UniProt P45985)
Chain of MAP2K4 (human) (P45985 whole entry, looked up): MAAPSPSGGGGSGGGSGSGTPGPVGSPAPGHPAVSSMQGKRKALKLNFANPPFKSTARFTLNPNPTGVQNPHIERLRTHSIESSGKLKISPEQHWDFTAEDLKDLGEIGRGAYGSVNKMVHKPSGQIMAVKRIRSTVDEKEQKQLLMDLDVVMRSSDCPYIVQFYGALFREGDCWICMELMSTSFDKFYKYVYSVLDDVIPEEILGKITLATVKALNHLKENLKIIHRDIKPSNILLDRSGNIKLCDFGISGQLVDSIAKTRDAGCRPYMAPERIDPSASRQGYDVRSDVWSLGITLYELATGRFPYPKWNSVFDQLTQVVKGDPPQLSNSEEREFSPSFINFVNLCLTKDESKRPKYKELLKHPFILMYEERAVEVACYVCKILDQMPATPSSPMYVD

ITK (human) = ITK (human) (UniProt Q08881)
Chain of ITK (human) (Q08881 whole entry, looked up): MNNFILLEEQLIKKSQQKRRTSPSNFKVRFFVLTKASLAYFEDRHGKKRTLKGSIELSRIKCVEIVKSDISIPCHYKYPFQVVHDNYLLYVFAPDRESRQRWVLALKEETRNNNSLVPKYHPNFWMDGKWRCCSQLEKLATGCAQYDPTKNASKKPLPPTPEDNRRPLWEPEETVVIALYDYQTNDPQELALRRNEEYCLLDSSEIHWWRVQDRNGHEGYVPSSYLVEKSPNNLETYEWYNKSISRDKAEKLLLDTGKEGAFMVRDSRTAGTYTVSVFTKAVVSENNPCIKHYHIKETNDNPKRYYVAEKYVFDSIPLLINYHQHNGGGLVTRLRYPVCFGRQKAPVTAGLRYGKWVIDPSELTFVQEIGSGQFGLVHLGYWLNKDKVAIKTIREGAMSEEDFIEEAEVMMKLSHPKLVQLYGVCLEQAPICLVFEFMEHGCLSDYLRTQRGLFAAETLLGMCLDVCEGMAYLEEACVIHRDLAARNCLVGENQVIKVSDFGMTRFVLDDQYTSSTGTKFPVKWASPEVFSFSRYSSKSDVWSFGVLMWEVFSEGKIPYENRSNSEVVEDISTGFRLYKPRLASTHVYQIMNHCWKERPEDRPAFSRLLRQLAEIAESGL

PIP4K2B (human) = PIP4K2B (human) (UniProt P78356)
MST1R (human) = MST1R (human) (UniProt Q04912)
PRKACB (human) = PRKACB (human) (UniProt P22694)
EPHA3 (human) = EPHA3 (human) (UniProt P29320)
PIP5K1A (human) = PIP5K1A (human) (UniProt Q99755)
PAK2 (human) = PAK2 (human) (UniProt Q13177)
Chain of PAK2 (human) (Q13177 whole entry, looked up): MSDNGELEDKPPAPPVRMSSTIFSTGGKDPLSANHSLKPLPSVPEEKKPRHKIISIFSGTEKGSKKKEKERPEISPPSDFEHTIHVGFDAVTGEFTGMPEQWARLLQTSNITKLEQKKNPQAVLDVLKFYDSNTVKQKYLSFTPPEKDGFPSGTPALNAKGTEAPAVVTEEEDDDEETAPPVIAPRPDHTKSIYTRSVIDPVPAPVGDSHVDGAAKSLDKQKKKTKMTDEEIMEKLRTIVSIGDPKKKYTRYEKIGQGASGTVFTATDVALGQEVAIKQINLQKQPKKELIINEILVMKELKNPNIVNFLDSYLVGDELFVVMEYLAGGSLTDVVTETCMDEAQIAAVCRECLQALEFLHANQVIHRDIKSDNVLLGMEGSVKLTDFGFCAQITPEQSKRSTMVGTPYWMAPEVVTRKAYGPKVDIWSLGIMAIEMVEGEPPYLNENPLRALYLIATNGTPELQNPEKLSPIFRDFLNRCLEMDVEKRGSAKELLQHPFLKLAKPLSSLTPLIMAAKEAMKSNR

CDKL3 (human) = CDKL3 (human) (UniProt Q8IVW4)
MAK (human) = MAK (human) (UniProt P20794)
MAPK4 (human) = MAPK4 (human) (UniProt P31152)
PRKAA2 (human) = PRKAA2 (human) (UniProt P54646)
NIM1 (human) = NIM1 (human) (UniProt Q8IY84)
Chain of NIM1 (human) (Q8IY84 whole entry, looked up): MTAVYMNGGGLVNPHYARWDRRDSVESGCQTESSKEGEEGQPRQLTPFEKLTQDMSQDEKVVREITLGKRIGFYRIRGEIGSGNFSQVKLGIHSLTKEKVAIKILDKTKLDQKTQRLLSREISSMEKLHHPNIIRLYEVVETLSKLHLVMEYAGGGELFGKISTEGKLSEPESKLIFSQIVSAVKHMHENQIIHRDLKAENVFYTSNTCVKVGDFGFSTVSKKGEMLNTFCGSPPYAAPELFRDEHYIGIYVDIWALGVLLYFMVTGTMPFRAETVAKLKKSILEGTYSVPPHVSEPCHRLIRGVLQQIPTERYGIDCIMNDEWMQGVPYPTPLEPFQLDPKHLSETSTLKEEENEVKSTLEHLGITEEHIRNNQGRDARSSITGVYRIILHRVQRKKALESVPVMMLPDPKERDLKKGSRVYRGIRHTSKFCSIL

[2] = system: KIT (human), P10721 [V559D/V654A]

Compound	kinase still bound, per cent of control (CDK19 (human)) [%]	kinase still bound, per cent of control (MELK (human)) [%]	kinase still bound, per cent of control (MAPK9 (human)) [%]	kinase still bound, per cent of control (MAP3K5 (human)) [%]	kinase still bound, per cent of control (CAMK4 (human)) [%]	kinase still bound, per cent of control (FYN (human)) [%]	kinase still bound, per cent of control (RPS6KA1 KD2 (human)) [%]	kinase still bound, per cent of control (BTK (human)) [%]	kinase still bound, per cent of control (RPS6KA3 KD1 (human)) [%]	kinase still bound, per cent of control (IKBKE (human)) [%]	kinase still bound, per cent of control (FGFR1 (human)) [%]	kinase still bound, per cent of control (GSK3A (human)) [%]	kinase still bound, per cent of control (CDK9 (human)) [%]	kinase still bound, per cent of control (MAP3K3 (human)) [%]	kinase still bound, per cent of control (CSF1R (human)) [%]	kinase still bound, per cent of control (CSNK1A1L (human)) [%]	kinase still bound, per cent of control (VRK2 (human)) [%]	kinase still bound, per cent of control (CAMK2G (human)) [%]	kinase still bound, per cent of control (MST4 (human)) [%]	kinase still bound, per cent of control (IRAK3 (human)) [%]	other results
NC(=O)Nc1cc(-c2cccc(F)c2)sc1C(=O)N[C@@H]1CCCNC1	100	1.4	38	40	0.15	0.05	1.4	0.2	0.95	3.6	1.3	100	88	0	0	2.4	92	24	0.15	6.4	kinase still bound, per cent of control [1]: 5%; kinase still bound, per cent of control (MAP3K1 (human)): 51%; kinase still bound, per cent of control (RIPK1 (human)): 100%; kinase still bound, per cent of control (PRKG2 (human)): 0.5%; kinase still bound, per cent of control (PIK3CD (human)): 100%; kinase still bound, per cent of control (ACVR2B (human)): 3.8%; kinase still bound, per cent of control (MAP2K4 (human)): 2.2%; kinase still bound, per cent of control (ITK (human)): 0.55%; kinase still bound, per cent of control (PIP4K2B (human)): 0.2%; kinase still bound, per cent of control (MST1R (human)): 12%; kinase still bound, per cent of control (PRKACB (human)): 1.8%; kinase still bound, per cent of control (EPHA3 (human)): 0.2%; kinase still bound, per cent of control (PIP5K1A (human)): 0%; kinase still bound, per cent of control (PAK2 (human)): 16%; kinase still bound, per cent of control (CDKL3 (human)): 100%; kinase still bound, per cent of control (MAK (human)): 100%; kinase still bound, per cent of control (MAPK4 (human)): 61%; kinase still bound, per cent of control (PRKAA2 (human)): 0.35%; kinase still bound, per cent of control (NIM1 (human)): 13%
COCC(=O)NC/C=C/c1ccc2ncnc(Nc3ccc(Oc4ccc(C)nc4)c(C)c3)c2c1	0.5	92	53	90	86	100	73	68	92	100	100	100	100	100	100	82	100	94	90	82	kinase still bound, per cent of control [2]: 88%; kinase still bound, per cent of control (MAP3K1 (human)): 100%; kinase still bound, per cent of control (RIPK1 (human)): 100%; kinase still bound, per cent of control (PRKG2 (human)): 100%; kinase still bound, per cent of control (PIK3CD (human)): 100%; kinase still bound, per cent of control (ACVR2B (human)): 100%; kinase still bound, per cent of control (MAP2K4 (human)): 95%; kinase still bound, per cent of control (ITK (human)): 92%; kinase still bound, per cent of control (PIP4K2B (human)): 100%; kinase still bound, per cent of control (MST1R (human)): 100%; kinase still bound, per cent of control (PRKACB (human)): 100%; kinase still bound, per cent of control (EPHA3 (human)): 97%; kinase still bound, per cent of control (PIP5K1A (human)): 88%; kinase still bound, per cent of control (PAK2 (human)): 87%; kinase still bound, per cent of control (CDKL3 (human)): 100%; kinase still bound, per cent of control (MAK (human)): 90%; kinase still bound, per cent of control (MAPK4 (human)): 100%; kinase still bound, per cent of control (PRKAA2 (human)): 100%; kinase still bound, per cent of control (NIM1 (human)): 87%
